From patent US9464082B2, “Aryl and arylalkyl substituted pyrazolyl and pyrimidinyl tricyclic enones as antioxidant inflammation modulators” (AbbVie Inc., priority 2014, dated 2016) come the findings set out here.

SMILES strings stand for the structures. Where only a bound is given, the exact number is not on record here.

In the test the test system is IFNγ-Induced NO Production. Description: Nitric Oxide Suppression Assay (Suppression of IFNγ-Induced NO Production). The class given is cell-based. Conditions: RAW264.7; RAW 264.7 mouse macrophage cells; 2 hour pre-treatment with compound (3 μM to 0.3 nM, 10 point curve); 20 ng/mL interferon gamma, ~18 hour; Griess detection; n=2-3 in duplicates. In a few lines: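 Griess-based absorbance read (520–550 nm) of supernatant after RAW 264.7 mouse macrophages received 10-point compound dilutions (3 μM–0.3 nM, DMSO ≤1%) for 2 h, then 20 ng/mL IFNγ for ~18 h at 37 °C. Signal normalised to IFNγ-only peak; IC50 fitted to mean of n=2-3 duplicates.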
On the technique in general: Nitrite, measured by Griess reagent, commonly stands in for NO production.
One may read the IC50 as the concentration needed to halve the response being measured. `C[C@@H]1C(=O)C(C#N)=C[C@]2(c3ccccc3)c3n[nH]c(-c4cnn(CC(=O)O)c4)c3CC[C@@H]12` [Example 141, {4-[(5aS,6S,9aR)-8-cyano-6-methyl-7-oxo-9a-phenyl-4,5,5a,6,7,9a-hexahydro-2H-benzo[g]indazol-3-yl]-1H-pyrazol-1-yl}acetic acid]: the IC50 was found to be 4 nM.
With `Cc1nc(-c2ccc(-c3cncnc3)cc2)c2c(n1)[C@@]1(c3ccccc3)C=C(C#N)C(=O)[C@@H](C)[C@@H]1CC2` [Example 129, (6aS,7S,10aR)-2,7-dimethyl-8-oxo-10a-phenyl-4-[4-(pyrimidin-5-yl)phenyl]-5,6,6a,7,8,10a-hexahydrobenzo[h]quinazoline-9-carbonitrile] the figure was 13 nM; with `C[C@@H]1C(=O)C(C#N)=C[C@]2(c3ccccc3)c3nc(-c4cc(Br)ccc4O)ncc3CC[C@@H]12` [Example 111, (6aS,7S,10aR)-2-(5-bromo-2-hydroxyphenyl)-7-methyl-8-oxo-10a-phenyl-5,6,6a,7,8,10a-hexahydrobenzo[h]quinazoline-9-carbonitrile], 12.3 nM.
Next, `C[C@@H]1C(=O)C(C#N)=C[C@]2(c3ccccc3)c3nc(-c4cnccn4)ncc3CC[C@@H]12` [Example 84, (6aS,7S,10aR)-7-methyl-8-oxo-10a-phenyl-2-(pyrazin-2-yl)-5,6,6a,7,8,10a-hexahydrobenzo[h]quinazoline-9-carbonitrile]: 6.72 nM.
For `C[C@@H]1C(=O)C(C#N)=C[C@]2(c3cccc(F)c3)c3n[nH]cc3CC[C@@H]12` [Example 53, (5aS,6S,9aR)-9a-(3-fluorophenyl)-6-methyl-7-oxo-4,5,5a,6,7,9a-hexahydro-2H-benzo[g]indazole-8-carbonitrile], the IC50 stood at 31.7 nM.
With `COc1nc(C)nc2c1CC[C@H]1[C@H](C)C(=O)C(C#N)=C[C@]21c1ccccc1` [Example 13, (6aS,7S,10aR)-4-methoxy-2,7-dimethyl-8-oxo-10a-phenyl-5,6,6a,7,8,10a-hexahydrobenzo[h]quinazoline-9-carbonitrile] the figure was 4.8 nM; with `C[C@@H]1C(=O)C(C#N)=C[C@]2(c3cccc(C(=O)O)c3)c3ncncc3CC[C@@H]12` [Example 60, 3-[(6aS,7S,10aR)-9-cyano-7-methyl-8-oxo-6,6a,7,8-tetrahydrobenzo[h]quinazolin-10a(5H)-yl]benzoic acid], more than 3000 nM.
With `Cc1nc(-c2cnc(O)c(Br)c2)c2c(n1)[C@@]1(c3ccccc3)C=C(C#N)C(=O)[C@@H](C)[C@@H]1CC2` [Example 132, (6aS,7S,10aR)-4-(5-bromo-6-hydroxypyridin-3-yl)-2,7-dimethyl-8-oxo-10a-phenyl-5,6,6a,7,8,10a-hexahydrobenzo[h]quinazoline-9-carbonitrile] the figure was 387 nM.
Next, `C[C@@H]1C(=O)C(C#N)=C[C@]2(c3cccc(C(=O)O)c3)c3nc(-c4ccccc4)ncc3CC[C@@H]12` [Example 100, 3-[(6aS,7S,10aR)-9-cyano-7-methyl-8-oxo-2-phenyl-6,6a,7,8-tetrahydrobenzo[h]quinazolin-10a(5H)-yl]benzoic acid]: 426 nM.
Regarding `Cc1nc(-c2cnc(C)s2)c2c(n1)[C@@]1(c3ccccc3)C=C(C#N)C(=O)[C@@H](C)[C@@H]1CC2` [Example 18, (6aS,7S,10aR)-2,7-dimethyl-4-(2-methyl-1,3-thiazol-5-yl)-8-oxo-10a-phenyl-5,6,6a,7,8,10a-hexahydrobenzo[h]quinazoline-9-carbonitrile], the half-inhibitory concentration (IC50) was found to be 5.17 nM.
Next, `COC(=O)n1cc(-c2nc(C)nc3c2CC[C@H]2[C@H](C)C(=O)C(C#N)=C[C@]32c2ccccc2)cn1` [Example 98, methyl 4-[(6aS,7S,10aR)-9-cyano-2,7-dimethyl-8-oxo-10a-phenyl-5,6,6a,7,8,10a-hexahydrobenzo[h]quinazolin-4-yl]-1H-pyrazole-1-carboxylate]: 1.5 nM; `COc1ccc([C@]23C=C(C#N)C(=O)[C@@H](C)[C@@H]2CCc2c(-c4cncnc4)nc(C)nc23)cc1` [Example 67, (6aS,7S,10aR)-10a-(4-methoxyphenyl)-2,7-dimethyl-8-oxo-4-(pyrimidin-5-yl)-5,6,6a,7,8,10a-hexahydrobenzo[h]quinazoline-9-carbonitrile]: 21.8 nM; `Cc1nc(-c2ccnnc2)c2c(n1)[C@@]1(c3ccccc3)C=C(C#N)C(=O)[C@@H](C)[C@@H]1CC2` [Example 172, (6aS,7S,10aR)-2,7-dimethyl-8-oxo-10a-phenyl-4-(pyridazin-4-yl)-5,6,6a,7,8,10a-hexahydrobenzo[h]quinazoline-9-carbonitrile]: 49.4 nM.
Next, `C[C@@H]1C(=O)C(C#N)=C[C@]2(c3cccc(C(N)=O)c3)c3ncncc3CC[C@@H]12` [Example 61, 3-[(6aS,7S,10aR)-9-cyano-7-methyl-8-oxo-6,6a,7,8-tetrahydrobenzo[h]quinazolin-10a(5H)-yl]benzamide]: 591 nM; `Cc1nc(Nc2cccnc2)c2c(n1)[C@@]1(c3ccccc3)C=C(C#N)C(=O)[C@@H](C)[C@@H]1CC2` [Example 147, (6aS,7S,10aR)-2,7-dimethyl-8-oxo-10a-phenyl-4-(pyridin-3-ylamino)-5,6,6a,7,8,10a-hexahydrobenzo[h]quinazoline-9-carbonitrile]: 48 nM.
With `COc1cccc(-c2nc(C)nc3c2CC[C@H]2[C@H](C)C(=O)C(C#N)=C[C@]32c2ccccc2)c1` [Example 43, (6aS,7S,10aR)-4-(3-methoxyphenyl)-2,7-dimethyl-8-oxo-10a-phenyl-5,6,6a,7,8,10a-hexahydrobenzo[h]quinazoline-9-carbonitrile] the figure was 16.5 nM.
Regarding `COC(=O)c1cccc([C@]23C=C(C(N)=O)C(=O)[C@@H](C)[C@@H]2CCc2cncnc23)c1` [Example 142, methyl 3-[(6aS,7S,10aR)-9-carbamoyl-7-methyl-8-oxo-6,6a,7,8-tetrahydrobenzo[h]quinazolin-10a(5H)-yl]benzoate], the half-inhibitory concentration (IC50) turned out to be 2280 nM.
Next, `COc1cccc([C@]23C=C(C#N)C(=O)[C@@H](C)[C@@H]2CCc2cn(C)nc23)c1` (racemic) [Example 4, rac-(5aS,6S,9aR)-9a-(3-methoxyphenyl)-2,6-dimethyl-7-oxo-4,5,5a,6,7,9a-hexahydro-2H-benzo[g]indazole-8-carbonitrile]: 114 nM; `C[C@@H]1C(=O)C(C#N)=C[C@]2(c3ccccc3)c3nn(C)c(-c4cccc(-c5ccc(C(N)=O)cc5)c4)c3CC[C@@H]12` [Example 171, 3′-[(5aS,6S,9aR)-8-cyano-2,6-dimethyl-7-oxo-9a-phenyl-4,5,5a,6,7,9a-hexahydro-2H-benzo[g]indazol-3-yl]biphenyl-4-carboxamide]: 13.9 nM.
With `Cc1nc(-c2cncnc2)c2c(n1)[C@@]1(c3ccccc3)C=C(C(N)=O)C(=O)[C@@H](C)[C@@H]1CC2` [Example 130, (6aS,7S,10aR)-2,7-dimethyl-8-oxo-10a-phenyl-4-(pyrimidin-5-yl)-5,6,6a,7,8,10a-hexahydrobenzo[h]quinazoline-9-carboxamide] the figure was more than 3000 nM.
With `C[C@@H]1C(=O)C(C#N)=C[C@]2(c3ccccc3)c3nc(-c4ccc(C(N)=O)cc4)ncc3CC[C@@H]12` [Example 136, 4-[(6aS,7S,10aR)-9-cyano-7-methyl-8-oxo-10a-phenyl-5,6,6a,7,8,10a-hexahydrobenzo[h]quinazolin-2-yl]benzamide] the figure was 3.37 nM; with `C[C@@H]1C(=O)C(C#N)=C[C@]2(c3ccc(OCc4ccccc4)cc3)c3ncncc3CC[C@@H]12` [Example 120, (6aS,7S,10aR)-10a-[4-(benzyloxy)phenyl]-7-methyl-8-oxo-5,6,6a,7,8,10a-hexahydrobenzo[h]quinazoline-9-carbonitrile], 5.44 nM; with `CC(=O)OCCc1cccc(-c2nc(C)nc3c2CC[C@H]2[C@H](C)C(=O)C(C#N)=C[C@]32c2ccccc2)c1` [Example 46, 2-{3-[(6aS,7S,10aR)-9-cyano-2,7-dimethyl-8-oxo-10a-phenyl-5,6,6a,7,8,10a-hexahydrobenzo[h]quinazolin-4-yl]phenyl}ethyl acetate], 7.52 nM.
Take `C[C@@H]1C(=O)C(C#N)=C[C@]2(c3cccc(C(=O)O)c3)c3nc(-c4ccc(C(=O)O)cc4)ncc3CC[C@@H]12` [Example 104, 3-[(6aS,7S,10aR)-2-(4-carboxyphenyl)-9-cyano-7-methyl-8-oxo-6,6a,7,8-tetrahydrobenzo[h]quinazolin-10a(5H)-yl]benzoic acid]: the IC50 came to 924 nM.
Next, `C[C@@H]1C(=O)C(C#N)=C[C@]2(c3ccccc3)c3n[nH]c(-c4cncc(CO)c4)c3CC[C@@H]12` [Example 126, (5aS,6S,9aR)-3-[5-(hydroxymethyl)pyridin-3-yl]-6-methyl-7-oxo-9a-phenyl-4,5,5a,6,7,9a-hexahydro-2H-benzo[g]indazole-8-carbonitrile]: 9.67 nM; `C[C@@H]1C(=O)C(C#N)=C[C@]2(c3ccccc3)c3n[nH]c(-c4cnn(-c5cccnc5)c4)c3CC[C@@H]12` [Example 158, (5aS,6S,9aR)-6-methyl-7-oxo-9a-phenyl-3-[1-(pyridin-3-yl)-1H-pyrazol-4-yl]-4,5,5a,6,7,9a-hexahydro-2H-benzo[g]indazole-8-carbonitrile]: 33 nM.
With `COC(=O)c1ccc([C@]23C=C(C#N)C(=O)[C@@H](C)[C@@H]2CCc2c(-c4c(Br)ncn4C)nc(C)nc23)cc1` [Example 176, methyl 4-[(6aS,7S,10aR)-4-(4-bromo-1-methyl-1H-imidazol-5-yl)-9-cyano-2,7-dimethyl-8-oxo-6,6a,7,8-tetrahydrobenzo[h]quinazolin-10a(5H)-yl]benzoate] the figure was 12.8 nM.
Next, `Cc1nc(-c2cncnc2)c2c(n1)[C@@]1(c3ccc(F)cc3)C=C(C#N)C(=O)[C@@H](C)[C@@H]1CC2` [Example 68, (6aS,7S,10aR)-10a-(4-fluorophenyl)-2,7-dimethyl-8-oxo-4-(pyrimidin-5-yl)-5,6,6a,7,8,10a-hexahydrobenzo[h]quinazoline-9-carbonitrile]: 33.6 nM.
